A short description of this data set: Coloring and deliquescence of compressed droxidopa/additive mixtures on preservation. It is filed as physicochemical. Here is the method: Droxidopa and the following excipients were mixed at 1:1 in a mortar and the mixture was compressed at a pressure of 20 kgf/cm^2 using an oil hydraulic press (manufactured by RIKEN). The obtained tablets were preserved under the respective conditions of 60° C. […] The 60° C. 2 week preservation product was measured for the color difference from the initial stage preservation product using a spectral calorimeter (SE-2000: manufactured by Nippon Denshoku Industries Co., Ltd.).
Droxidopa and the following excipients were mixed at 4:1 in a mortar and the mixture was compressed at a pressure of 20 kgf/cm^2 using an oil hydraulic press (manufactured by RIKEN) .

Consider one compound from patent publication US20090074861A1, “STABLE TABLET CONTAINING DROXIDOPA” (DAINIPPON SUMITOMO PHARMA CO., LTD., priority 2005, published 2009).

For the compound `N[C@H](C(=O)O)[C@H](O)c1ccc(O)c(O)c1` [droxidopa alone (without disintegrant), droxidopa], the “60° C. × 2 W color difference” value is on record as 2.73 (droxidopa:additive 1:1 compressed tablet, difference from initial stage product) and 2.73 (droxidopa:additive 4:1 compressed tablet).
